Assay results reported in BindingDB's records for doi:10.1021/jm00039a019 (Zeria Pharmaceutical, 1994).

Target: Prolyl endopeptidase (Canis familiaris)
Assay: In vitro inhibitory activity against purified prolyl endopeptidase (PEP) from canine brain.

| Structure (SMILES) | IC50 |
| --- | --- |
| O=C[C@@H]1CSCN1C(=O)[C@@H]1CSCN1C(=O)C[C@H]1CCc2ccccc2C1 [(R)-3-[(R)-3-((S)-2-1,2,3,4-Tetrahydro-naphthalen-2-yl-acetyl)-thiazolidine-4-carbonyl]-thiazolidine-4-carbaldehyde] | 0.85 nM |
| CC(C)c1ccc(C(=O)c2cccs2)c(SCCCCCCCCN(C)C)n1 [[2-(8-Dimethylamino-octylsulfanyl)-6-isopropyl-pyridin-3-yl]-thiophen-2-yl-methanone] | 3500 nM |
